ChEMBL document CHEMBL1152560, “Substituted 2-arylbenzothiazoles as kinase inhibitors: hit-to-lead optimization” (Bioorg Med Chem, 2009)

Assays:
[1] = biological target: Casein kinase I isoform epsilon (Homo sapiens) (UniProt P49674); assay: Residual activity of CK1epsilon at 1 uM by microplate scintillation counting
[2] = biological target: T1, Tyrosine-protein kinase Tec (Homo sapiens) (UniProt P42680); assay: Residual activity of TEC at 10 uM by microplate scintillation counting
T1 sequence (whole entry): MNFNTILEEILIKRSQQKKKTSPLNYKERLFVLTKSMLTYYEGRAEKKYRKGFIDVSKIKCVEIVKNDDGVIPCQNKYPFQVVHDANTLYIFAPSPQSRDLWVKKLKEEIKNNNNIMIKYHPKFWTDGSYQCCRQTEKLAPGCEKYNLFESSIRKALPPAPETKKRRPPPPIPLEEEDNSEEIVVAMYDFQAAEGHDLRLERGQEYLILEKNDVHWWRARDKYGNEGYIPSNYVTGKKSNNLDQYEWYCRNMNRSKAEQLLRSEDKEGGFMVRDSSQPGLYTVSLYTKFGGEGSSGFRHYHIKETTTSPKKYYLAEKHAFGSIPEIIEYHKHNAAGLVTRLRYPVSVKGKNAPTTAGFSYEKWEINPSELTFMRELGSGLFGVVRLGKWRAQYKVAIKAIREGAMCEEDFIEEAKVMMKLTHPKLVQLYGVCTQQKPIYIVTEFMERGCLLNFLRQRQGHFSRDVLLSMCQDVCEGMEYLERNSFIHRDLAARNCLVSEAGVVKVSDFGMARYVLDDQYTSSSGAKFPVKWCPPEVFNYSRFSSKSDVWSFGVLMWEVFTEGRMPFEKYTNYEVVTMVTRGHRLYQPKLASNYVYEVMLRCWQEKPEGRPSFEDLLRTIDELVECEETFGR

[3] = biological target: CDK4/Cyclin D3 (Homo sapiens) (UniProt P11802+P30281); assay: Residual activity of CDK4/Cyclin D3 at 1 uM by microplate scintillation counting; assay type: protein-complex assay
[4] = biological target: T2, Inhibitor of nuclear factor kappa-B kinase subunit beta (Homo sapiens) (UniProt O14920); assay: Residual activity of IKK-beta at 10 uM by microplate scintillation counting
T2 sequence (whole entry): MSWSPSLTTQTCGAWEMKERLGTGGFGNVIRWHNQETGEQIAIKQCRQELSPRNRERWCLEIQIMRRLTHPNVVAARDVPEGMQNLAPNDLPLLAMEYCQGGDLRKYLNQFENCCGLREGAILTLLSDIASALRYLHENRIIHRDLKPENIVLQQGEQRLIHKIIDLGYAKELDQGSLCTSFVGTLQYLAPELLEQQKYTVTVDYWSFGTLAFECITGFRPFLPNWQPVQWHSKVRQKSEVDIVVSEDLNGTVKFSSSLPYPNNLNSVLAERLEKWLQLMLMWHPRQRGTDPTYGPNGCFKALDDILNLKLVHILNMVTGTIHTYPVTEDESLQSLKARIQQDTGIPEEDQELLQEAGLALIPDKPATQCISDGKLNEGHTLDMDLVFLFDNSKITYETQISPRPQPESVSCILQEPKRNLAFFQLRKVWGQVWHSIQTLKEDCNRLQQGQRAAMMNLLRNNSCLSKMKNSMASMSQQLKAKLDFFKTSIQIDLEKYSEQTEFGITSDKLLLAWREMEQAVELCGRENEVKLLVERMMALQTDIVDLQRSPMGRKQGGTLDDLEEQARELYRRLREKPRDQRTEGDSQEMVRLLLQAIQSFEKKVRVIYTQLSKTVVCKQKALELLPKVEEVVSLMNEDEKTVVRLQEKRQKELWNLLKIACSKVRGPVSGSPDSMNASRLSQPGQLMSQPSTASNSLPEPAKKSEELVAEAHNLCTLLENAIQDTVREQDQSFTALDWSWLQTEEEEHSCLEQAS

[5] = biological target: Mitogen-activated protein kinase kinase kinase kinase 4 (Homo sapiens) (UniProt O95819); assay: Residual activity of MAP4K4 at 10 uM by microplate scintillation counting
Sequence of Mitogen-activated protein kinase kinase kinase kinase 4 (Homo sapiens) (O95819 2-1239 limits assumed): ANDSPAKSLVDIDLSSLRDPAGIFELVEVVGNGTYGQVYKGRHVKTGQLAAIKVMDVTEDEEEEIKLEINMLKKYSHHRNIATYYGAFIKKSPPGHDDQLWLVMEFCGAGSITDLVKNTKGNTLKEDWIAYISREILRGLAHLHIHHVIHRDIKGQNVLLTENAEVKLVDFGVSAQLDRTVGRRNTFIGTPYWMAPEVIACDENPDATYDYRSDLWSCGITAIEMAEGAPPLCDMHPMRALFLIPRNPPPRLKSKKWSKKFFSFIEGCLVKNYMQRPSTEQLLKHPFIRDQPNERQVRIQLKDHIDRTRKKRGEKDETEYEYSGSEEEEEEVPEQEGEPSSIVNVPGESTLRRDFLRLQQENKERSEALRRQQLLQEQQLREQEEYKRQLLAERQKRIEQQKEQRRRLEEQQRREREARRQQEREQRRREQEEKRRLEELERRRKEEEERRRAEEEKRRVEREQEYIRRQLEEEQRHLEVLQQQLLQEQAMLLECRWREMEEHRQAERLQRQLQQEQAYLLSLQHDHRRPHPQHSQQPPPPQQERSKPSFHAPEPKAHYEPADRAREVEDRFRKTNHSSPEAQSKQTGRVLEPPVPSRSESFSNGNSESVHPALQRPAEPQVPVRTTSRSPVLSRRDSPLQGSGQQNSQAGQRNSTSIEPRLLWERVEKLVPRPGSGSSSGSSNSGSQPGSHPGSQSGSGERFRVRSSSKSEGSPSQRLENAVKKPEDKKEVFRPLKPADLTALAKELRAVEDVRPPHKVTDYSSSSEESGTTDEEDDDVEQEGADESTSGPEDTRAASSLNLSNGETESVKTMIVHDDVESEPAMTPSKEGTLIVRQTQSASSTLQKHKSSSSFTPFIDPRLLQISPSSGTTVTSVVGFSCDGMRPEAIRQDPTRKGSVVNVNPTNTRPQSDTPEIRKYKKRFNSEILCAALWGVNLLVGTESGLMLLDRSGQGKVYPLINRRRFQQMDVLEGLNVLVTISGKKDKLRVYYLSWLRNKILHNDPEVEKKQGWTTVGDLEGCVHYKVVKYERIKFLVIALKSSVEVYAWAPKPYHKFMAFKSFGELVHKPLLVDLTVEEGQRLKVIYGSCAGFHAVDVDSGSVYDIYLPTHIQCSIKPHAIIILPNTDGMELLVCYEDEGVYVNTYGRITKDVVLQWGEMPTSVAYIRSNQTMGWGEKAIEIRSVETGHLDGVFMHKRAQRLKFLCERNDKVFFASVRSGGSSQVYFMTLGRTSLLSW

[6] = biological target: Serine/threonine-protein kinase PAK 6 (Homo sapiens) (UniProt Q9NQU5); assay: Residual activity of PAK6 at 10 uM by microplate scintillation counting
Sequence of Serine/threonine-protein kinase PAK 6 (Homo sapiens) (Q9NQU5 whole entry, looked up, canonical isoform): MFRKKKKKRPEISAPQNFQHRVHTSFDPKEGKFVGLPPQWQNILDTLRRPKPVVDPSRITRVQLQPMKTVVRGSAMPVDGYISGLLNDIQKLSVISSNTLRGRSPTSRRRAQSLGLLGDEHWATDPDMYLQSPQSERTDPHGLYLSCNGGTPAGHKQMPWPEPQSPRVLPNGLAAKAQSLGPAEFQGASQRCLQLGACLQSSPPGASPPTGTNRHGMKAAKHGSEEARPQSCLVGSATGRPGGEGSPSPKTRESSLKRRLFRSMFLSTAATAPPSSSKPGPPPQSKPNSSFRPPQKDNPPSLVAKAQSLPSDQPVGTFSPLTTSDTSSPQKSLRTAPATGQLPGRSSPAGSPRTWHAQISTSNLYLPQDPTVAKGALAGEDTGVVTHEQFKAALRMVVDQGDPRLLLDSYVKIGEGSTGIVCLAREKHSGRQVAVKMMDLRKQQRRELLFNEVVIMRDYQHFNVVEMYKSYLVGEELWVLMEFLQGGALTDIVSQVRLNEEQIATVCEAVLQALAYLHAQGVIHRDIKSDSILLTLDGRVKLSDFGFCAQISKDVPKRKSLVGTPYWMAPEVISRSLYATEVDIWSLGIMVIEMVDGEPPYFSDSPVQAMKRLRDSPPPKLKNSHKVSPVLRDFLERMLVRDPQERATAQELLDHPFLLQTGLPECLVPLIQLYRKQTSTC

[7] = biological target: Casein kinase I isoform alpha (Homo sapiens) (UniProt P48729); assay: Residual activity of CK1alpha1 at 1 uM by microplate scintillation counting
Sequence of Casein kinase I isoform alpha (Homo sapiens) (P48729 2-337 limits assumed): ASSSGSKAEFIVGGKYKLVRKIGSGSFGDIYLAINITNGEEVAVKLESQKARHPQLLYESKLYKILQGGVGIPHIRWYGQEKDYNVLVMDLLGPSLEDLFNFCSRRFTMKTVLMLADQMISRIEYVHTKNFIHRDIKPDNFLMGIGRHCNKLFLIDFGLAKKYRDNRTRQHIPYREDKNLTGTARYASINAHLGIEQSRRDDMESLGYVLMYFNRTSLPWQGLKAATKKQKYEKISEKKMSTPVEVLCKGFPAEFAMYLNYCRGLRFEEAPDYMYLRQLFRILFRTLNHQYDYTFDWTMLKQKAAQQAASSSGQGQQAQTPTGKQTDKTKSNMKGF

[8] = biological target: Serine/threonine-protein kinase PAK 6 (Homo sapiens) (UniProt Q9NQU5); assay: Residual activity of PAK6 at 1 uM by microplate scintillation counting
[9] = biological target: T3, Serine/threonine-protein kinase TAO2 (Homo sapiens) (UniProt Q9UL54); assay: Residual activity of TAOK2 at 10 uM by microplate scintillation counting
T3 sequence (whole entry): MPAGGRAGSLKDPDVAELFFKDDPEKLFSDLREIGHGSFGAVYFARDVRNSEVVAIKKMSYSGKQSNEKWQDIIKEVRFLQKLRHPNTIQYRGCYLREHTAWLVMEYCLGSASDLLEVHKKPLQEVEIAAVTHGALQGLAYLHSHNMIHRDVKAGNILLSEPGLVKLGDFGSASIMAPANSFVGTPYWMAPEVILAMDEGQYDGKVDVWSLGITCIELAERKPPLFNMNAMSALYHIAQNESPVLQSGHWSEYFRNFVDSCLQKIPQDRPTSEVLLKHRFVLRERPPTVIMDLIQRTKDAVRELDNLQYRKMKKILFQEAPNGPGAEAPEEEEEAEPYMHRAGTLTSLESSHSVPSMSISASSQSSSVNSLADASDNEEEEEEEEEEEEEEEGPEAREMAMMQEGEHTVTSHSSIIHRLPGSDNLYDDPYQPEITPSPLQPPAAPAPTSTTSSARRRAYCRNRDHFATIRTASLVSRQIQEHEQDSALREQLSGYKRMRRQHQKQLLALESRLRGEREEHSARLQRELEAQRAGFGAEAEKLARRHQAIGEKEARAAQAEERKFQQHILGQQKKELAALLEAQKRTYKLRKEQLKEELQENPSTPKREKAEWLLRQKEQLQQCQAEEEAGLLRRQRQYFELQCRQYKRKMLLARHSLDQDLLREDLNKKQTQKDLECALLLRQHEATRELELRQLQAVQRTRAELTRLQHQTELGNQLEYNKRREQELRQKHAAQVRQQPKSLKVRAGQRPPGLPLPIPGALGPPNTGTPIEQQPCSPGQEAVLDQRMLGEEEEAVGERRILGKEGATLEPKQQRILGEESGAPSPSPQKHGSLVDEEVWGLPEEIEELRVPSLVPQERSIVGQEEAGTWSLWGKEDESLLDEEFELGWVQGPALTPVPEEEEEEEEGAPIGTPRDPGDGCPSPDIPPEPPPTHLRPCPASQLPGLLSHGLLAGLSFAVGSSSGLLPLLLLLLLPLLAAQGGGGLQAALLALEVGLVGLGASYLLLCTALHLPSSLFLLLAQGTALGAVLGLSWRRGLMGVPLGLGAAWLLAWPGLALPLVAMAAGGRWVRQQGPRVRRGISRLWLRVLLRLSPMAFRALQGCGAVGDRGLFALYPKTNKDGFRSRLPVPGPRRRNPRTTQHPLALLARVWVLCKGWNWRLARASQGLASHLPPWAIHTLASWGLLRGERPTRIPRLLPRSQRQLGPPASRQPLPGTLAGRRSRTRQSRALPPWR

Sequence of Casein kinase I isoform epsilon (Homo sapiens) (P49674 whole entry, looked up, canonical isoform): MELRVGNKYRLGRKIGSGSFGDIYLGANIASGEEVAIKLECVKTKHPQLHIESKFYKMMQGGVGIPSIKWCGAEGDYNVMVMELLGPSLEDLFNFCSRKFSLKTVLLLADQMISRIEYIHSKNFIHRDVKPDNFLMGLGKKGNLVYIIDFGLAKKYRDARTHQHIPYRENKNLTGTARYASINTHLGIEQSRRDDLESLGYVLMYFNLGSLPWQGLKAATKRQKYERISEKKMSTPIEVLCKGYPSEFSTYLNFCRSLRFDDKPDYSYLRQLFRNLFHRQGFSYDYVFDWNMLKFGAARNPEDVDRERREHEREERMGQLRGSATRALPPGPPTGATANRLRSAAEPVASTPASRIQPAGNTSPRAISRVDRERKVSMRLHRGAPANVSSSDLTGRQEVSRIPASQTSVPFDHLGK

residual activity [1] [%]	residual activity [2] [%]	residual activity [3] [%]	residual activity [4] [%]	residual activity [5] [%]	residual activity [6] [%]	residual activity [7] [%]	residual activity [8] [%]	residual activity [9] [%]	Compound
107	45	105	135	76	95	102	109	122	COc1cc2c(Oc3ccc(-c4nc5ccccc5s4)cc3)ncnc2cc1OCCCN1CCCC1
94	61	95	109	101	65	99	74	141	COc1cc2c(Oc3ccc(-c4nc5ccccc5s4)cc3)ncnc2cc1OCCCN1CCN(C)CC1
101	25	86	116	96	57	103	90	129	COc1cc2c(Oc3ccc(-c4nc5ccccc5s4)cc3F)ncnc2cc1OCCCN1CCN(C)CC1
